Laboratory results taken from patent publication US12509734B2, “Systems and methods to assess microbiomes and treatments thereof” (priority 2013, dated 2025).

What was measured:
[1] = tested on: bacterial vaginosis (BV); experiment: Clinical assessment of BV patients after therapy (Amsel criteria, Nugent score, recurrence); type: in vivo, human
Description: Patients. Five African American participants were followed at the Vaginitis Clinic at Wayne State University and had been treated for recurrent episodes symptomatic bouts of BV. Patients were enrolled after protocol explanation and written informed consent was obtained. The study was endorsed by the Human Investigational Review Board of Wayne State University. At the time of enrollment, patients were diagnosed with florid symptomatic acute BV, characterized by the presence of at least 3 of the 4 Amsel criteria (homogeneous vaginal discharge, pH elevated above 4.5, clue cells>20%, positive whiff test) and Nugent scores of at least 8.
At this immediate PT visit, patients were given Catch-All Sample Collection Swabs (Epicentre Biotechnologies, Madison, WI) and 15 mL conical tubes for vaginal specimen self-collection. […] Samples from a previously characterized group of recurrent BV patients, sampled before and after treatment, were also evaluated by Lb-qPCR. Reichman et al., Sexually Transmitted Diseases 36: 732-734, 2009.

[2] = tested on: vaginal microbiota (PB-primer target groups); experiment: PB-qPCR microbial profiles of vaginal swabs of recurrent BV patients (Example 2); type: in vivo, human
Protocol: Sample processing, DNA extraction, and qPCR. Microbial gDNA was purified from swabs in 1-2 ml saline or lysis solution by a high SDS/alkaline lysis—phenol extraction protocol as described previously in Lambert and resuspended in 200 μL TE (10 mM Tris, pH 8, 1 mM EDTA). The lysed bacterial gDNA is stable for over one month at room temperature in lysis solution buffer (data not shown) and this buffer prevents changes in titer due to possible stability issues with different strains of bacteria in saline. An aliquot of purified DNA was assayed by qPCR with 18 universal and phylogenetic branch-inclusive (PB) primers and PCR conditions as described previously in Lambert. Additional primers, targeting the Enterococcus genus and its cytolysin gene CyILL, are provided in SEQ ID NOs: 92 and 95 (Enterococcus), and 93 and 96 (cytolysin gene). Each PB-primer targets a branch of the phylogenetic tree, from whole phyla to family or genus, and is far more inclusive than species-specific primers. Relative LB composition of the vaginal microbiome was determined by dividing the Lactobacillaceae titer by the sum of all PB-primers and by using the disclosed LB-blocker approach. Briefly, the LB-blocker approach uses the difference between the quantitative cycles (Cq) of two parallel qPCR reactions with universal primers targeting the 16S rRNA gene, when one of the reactions is in the presence of LB spp.-specific blocking oligomers (LB-blockers) that have been chemically modified to prevent extension and that partially overlap the universal primer binding site, effectively rendering the LB DNA “invisible” to the universal PCR, even when LB gDNA is present at great excess compared to non-LB gDNA, as is common in healthy and PT samples. PB-primers amplicons were selectively sequenced to confirm they were correctly targeted and to identify the dominant species. These were “cleaned” enzymatically as described in Lambert, and Sanger sequenced at Functional Biosciences (Madison, WI). Sequences were uploaded to Ribosomal Database Project II using its Pipeline function; species were identified based on phylogenetic trees constructed in Molecular Evolutionary Genetics Analysis (MEGA5) software.
Calculations. Cq values from qPCR reactions were converted to molecules per reaction by comparing sample Cq values to a standard curve from the same run of Cq values derived from dilutions of an amplicon of known target of known concentration. Molecules per reaction were converted to cells per swab, assuming an average of 5 ribosomal genes per cell and proportioned to the ratio of the volume of the sample used in the DNA prep and the amount of sample used in the qPCR reaction. Delta Cq (ΔCq) values of LB-blocked reaction pairs were calculated as Cq (blocked sample)−Cq (unblocked sample). Differences between patient groups were compared using the t test in (GraphPad software).

[3] = tested on: relative LB content of the vaginal microbiome; experiment: Lb-qPCR / LbRC: delta Cq of LB-blocked versus unblocked universal qPCR of vaginal samples; type: in vivo, human; conditions: separate group of recurrent BV patients, FIG. 11
Protocol: Sample processing, DNA extraction, and qPCR. Microbial gDNA was purified from swabs in 1-2 ml saline or lysis solution by a high SDS/alkaline lysis—phenol extraction protocol as described previously in Lambert and resuspended in 200 μL TE (10 mM Tris, pH 8, 1 mM EDTA). The lysed bacterial gDNA is stable for over one month at room temperature in lysis solution buffer (data not shown) and this buffer prevents changes in titer due to possible stability issues with different strains of bacteria in saline. An aliquot of purified DNA was assayed by qPCR with 18 universal and phylogenetic branch-inclusive (PB) primers and PCR conditions as described previously in Lambert. Additional primers, targeting the Enterococcus genus and its cytolysin gene CyILL, are provided in SEQ ID NOs: 92 and 95 (Enterococcus), and 93 and 96 (cytolysin gene). Each PB-primer targets a branch of the phylogenetic tree, from whole phyla to family or genus, and is far more inclusive than species-specific primers. Relative LB composition of the vaginal microbiome was determined by dividing the Lactobacillaceae titer by the sum of all PB-primers and by using the disclosed LB-blocker approach. […]
Calculations. […] Delta Cq (ΔCq) values of LB-blocked reaction pairs were calculated as Cq (blocked sample)−Cq (unblocked sample). […]

[4] = tested on: bacterial vaginosis (BV); conditions: 121 women with BV successfully treated; cited from earlier work
[5] = P2, 500 mg suppositories, 2 per day for 7 days
[6] = P5, 7 daily 500 mg vaginal suppositories
[7] = separate group of recurrent BV patients

Cc1ncc([N+](=O)[O-])n1CCO [metronidazole]
Clinical status 10 days later ([1]; P1, daily suppositories 750 mg): full remission
Day of recurrence of symptomatic BV ([1]; P1, daily suppositories 750 mg): 94 days
Amsel status after treatment ([1]; P1, high dose vaginal): Amsel negative
Nugent score after treatment ([1]; P1, high dose vaginal, after first and second BV episodes): 0
Florid episodes of BV in the two previous years in spite of prophylactic therapy ([1]; P1, vaginal 500-750 mg twice weekly): 4
Amsel status after treatment ([1]; P2-post1, oral): Amsel negative
Nugent score after treatment ([1]; P2-post1, oral): 0
Day symptoms were reported after second treatment [1, 5]: 152 days
Response to second treatment [1, 5]: recovered well
Time to recurrence after second treatment (self-reported) ([1]; P2, 2x500 mg suppositories daily for 7 days): approximately 117 days PT
Clinical status one week later ([1]; P2, oral 500 mg bid for 7 days): asymptomatic
Time of symptomatic recurrence after enrollment ([1]; P2, oral 500 mg bid for 7 days): 35 days
Clinical status 21 days later [1, 6]: asymptomatic in clinical remission
Nugent score 21 days later [1, 6]: 4
Outcome at return within three weeks by Amsel criteria ([1]; five recurrent BV patients, Nugent scores of 0 except Patient 5): clinical cure
Nugent average after treatment, Post A group [1, 7]: 2.2±4.0
Nugent average after treatment, Post B group [1, 7]: 0.8±1.2
Actinobacteridae (G. vaginalis) share after treatment ([2]; P1-post1): 2%
Lactobacillaceae share of post-treatment samples ([2]; P1-post1 and -post2, high dose vaginal): > 97%
Further fold reduction of G. vaginalis ([2]; P1-post2 versus P1-post1): ~100 fold
Actinobacteridae (G. vaginalis) share after treatment ([2]; P2-post1, oral): < 0.5%
Share of 6-8 other targets after treatment ([2]; P2-post1, oral): under 0.1%
delta Cq score after treatment, Post A group [3]: 4.1±2.2
delta Cq score after treatment, Post B group [3]: 17±6
Women who recurred within one year [4]: 58%
Women who returned to abnormal vaginal profiles [4]: 69%

CCC[C@@H]1C[C@@H](C(=O)N[C@@H]([C@H]2O[C@H](SC)[C@H](O)[C@@H](O)[C@H]2O)[C@H](C)Cl)N(C)C1 [clindamycin]
Nugent score after treatment ([1]; P3, Nugent 10 before): 0
Actinobacteridae (G. vaginalis) after treatment, fold lower than P1 or P2 ([2]; P3-post): 10-100 fold
Mobiluncus share after treatment ([2]; P3-post): 0.4%
Share of all other targets after treatment ([2]; P3-post): below 0.01%
